Results from patent publication US9611330B2, “Compositions and methods for cancer and cancer stem cell detection and elimination” (The Regents of the University of California, priority 2011, dated 2017).
“Also recorded” adds a separate entry of the source. Where two headings read alike, the source gives them in different places.

How the values were obtained:
[1] = test system: Shh stimulated luciferase expression under an 8× Gli-response element; test: Mouse embryonic fibroblast Gli-luciferase reporter assay (Gli-Luc MEFs); assay type: cell-based; conditions: n=5, read-out: IC50, inhibition of Shh stimulated luciferase reporter activity in Gli-Luc MEFs
Text: Mouse Embryonic Fibroblast Gli-Luciferase Assay Mouse Embryonic Fibroblasts expressing luciferase under control of an 8× Gli-response element (Gli-Luc MEFs)^23 were obtained from the Pfizer transgenic core facility. Luciferase activity was quantified with an ENVISION™ plate reader (Perkin Elmer). Graphpad Prism was used for data analysis and IC50 calculation.

[2] = test system: Ptch+/−p53+/− medulloblastoma allografts; test: Mouse medulloblastoma allograft model; assay type: in vivo; conditions: oral dosing
Text: TAQMAN™ primer/probe sets (ABI) for FoxM1 (Mm00514924_ml), Gli1 (Mm00494645_ml), Gli2 (Mm01293117_ml), Mycn (Mm00476449_ml), Ptch1 (Mm00436026_ml), Ptch2 (Mm00436047_ml), Sfrp1 (Mm00489161_ml), Smo (Mm01162710_ml) and mouse GAPDH (4352339E), on the ABI 7900HT instrument. Target gene expression levels were normalized to mouse GAPDH and calibrated to vehicle treated mice to yield the relative quantitation (RQ) value. Selective Shh Inhibition in a Mouse Medulloblastoma Allograft Model Primary medulloblastoma tumors were harvested from Ptch^+/−p53^+/− or Ptch^+/−p53^−/− mice and propagated as allografts in SCID-bg mice 6-8 weeks of age (20 grams). Freshly isolated tumor fragments of approximately 50 mm^3 were surgically implanted subcutaneously into the hind flank region. Body weights and tumor size (length and width) were measured at regular intervals using a caliper and tumor volume was calculated using the formula: length (mm)×width (mm)×width (mm)×0.4. For the tumor growth inhibition studies, cohorts of Ptch^+/−p53^+/− medulloblastoma allograft bearing mice with tumors ranging from 200 mm^3 to 1000 mm^3 were dosed daily by oral gavage with vehicle (30% PEG 400/70% PBS) or with PF-04449913 formulated in vehicle.

[3] = test system: blast crisis CML leukemic progenitors (LSC); test: SL/M2 stromal co-culture of blast crisis CML LSC; assay type: cell-based, human; conditions: 7 days, vs vehicle (DMSO), p=0.047
Description: Stromal Co-Culture and in vitro Drug Treatment
(§1) Normal or blast crisis CML CD34^+ cells were plated on confluent mitomycin-C treated SL/M2 cells with different doses of PF-04449913, dasatinib, a combination of PF-04449913 and dasatinib, or vehicle for […]. After 1 week of culture, FACS was used to quantify human progenitors and progenitors were FACS sorted into hematopoietic progenitor assays. Colonies were scored after 2 weeks in culture.
(§2) The mouse bone marrow stromal cells lines M2-10B4 (M2) and SL/SL (SL) were provided by StemCell Technologies on behalf of Dr. Donna Hogge in the Terry Fox Laboratory (Vancouver, British Columbia). One day prior to co-culture, the cell lines were treated with mitomycin-C (1 mg/ml) and plated in a 1:1 mixture in total concentration of 100,000/ml. 10,000-20,000 CD34^+ blast crisis CML or normal cells were then plated on adherent SL/M2 stromal cells, cultured for 7 days, and analyzed by FACS as described previously^19. To assess expansion of normal human HS/PCs, irradiated OP9 (M2 clone) stromal cells (20 Gray on a Saxon-Mark1 irradiator) were co-cultured with 50,000 human CD34^+ cord blood. OP9M2 stroma was grown in AlphaMem from Gibco with 20% Hyclone FBS, 1% pen strep glutamine and supplemented with cytokines: […] Flt3.

[4] = test system: normal human HSPC; test: CD34+ cord blood engrafted NSG mice, 14-day treatment; assay type: in vivo; conditions: 100 mg/kg for 14 days
Description: Cg-Prkdc^scid Il2rg^tm1Wjl/SzJ female mice at 7-10 weeks were irradiated sublethally and transplanted with 100K CD34^+ human cord blood cells via retro-orbital injection. Eight weeks after transplantation of cord blood cells, the mice were treated for 14 days with either vehicle, or PF-04449913 via oral gavage.
(§3) Single cell suspensions of bone marrow cells from mice treated with PF-0449913 or vehicle were immunostained with Alexa647-conjugated anti-human CD45 (BioLegend) in 2% fetal bovine serum/PBS followed by live cell staining using the LIVE/DEAD® Fixable Near-IR Dead Cell Stain Kit (Invitrogen). Surface stained cells were then fixed in 70% ethanol overnight. Fixed, surface stained cells were immunostained with FITC-conjugated anti-Ki-67 (Abcam, 1:100) in 0.15% saponin/2% fetal bovine serum/PBS, washed twice in saponin-containing staining media and incubated with 7-AAD (10 μg/mL in 0.1M sodium citrate/5 mM EDTA pH8.0/0.15M NaCl/0.5% BSA/0.02% saponin). Stained samples were analyzed using a FACSARIA™ and FLOWJO™^21.

[5] = target: T1, human SMO (amino acids 181-787) (Homo sapiens, UniProt Q99835); test: SMO radioligand competition binding assay
T1 construct: V5-His (named only in the vector, pSecTag-FRT/V5-His); expressed in transfected cells; membranes prepared
T1 sequence (Q99835 181-787): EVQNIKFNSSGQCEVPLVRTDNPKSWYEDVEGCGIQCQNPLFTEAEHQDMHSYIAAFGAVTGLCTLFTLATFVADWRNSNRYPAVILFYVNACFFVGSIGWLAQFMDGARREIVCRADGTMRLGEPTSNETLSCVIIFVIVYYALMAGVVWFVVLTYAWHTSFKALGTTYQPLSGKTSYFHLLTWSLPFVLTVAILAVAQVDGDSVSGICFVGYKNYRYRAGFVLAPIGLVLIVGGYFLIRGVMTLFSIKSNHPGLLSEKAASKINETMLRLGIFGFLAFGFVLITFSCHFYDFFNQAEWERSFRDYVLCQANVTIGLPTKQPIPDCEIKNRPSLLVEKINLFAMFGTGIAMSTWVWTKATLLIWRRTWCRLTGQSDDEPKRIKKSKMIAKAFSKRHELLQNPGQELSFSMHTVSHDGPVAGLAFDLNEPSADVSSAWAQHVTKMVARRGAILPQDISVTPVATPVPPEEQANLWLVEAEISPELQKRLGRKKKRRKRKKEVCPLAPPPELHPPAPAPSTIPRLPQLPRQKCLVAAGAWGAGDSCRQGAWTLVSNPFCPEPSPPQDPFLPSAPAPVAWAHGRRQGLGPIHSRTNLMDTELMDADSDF
Description: SMO Radioligand Competition Binding Assay
Membranes were prepared from a stable cell line created in HEK293FlpIn-TetR cells (Invitrogen) using Flp recombinase-mediated insertion of the pSecTag-FRT/V5-His vector containing a cDNA encoding amino acids 181-787 of human Smo fused to the murine Igk leader sequence to produce a cell surface expressed […] protein. LacZ-negative cells were analyzed for binding a well characterized cyclopamine-competitive tritiated Smo antagonist^22. The tritiated ligand was prepared using Crabtree's catalyst and tritium gas. The labeled material was purified by RP HPLC (53.1 Ci/mmol specific activity at 99% purity). For the binding competition assay, 100 μl of assay buffer was added to all the wells of a 96 well GF/B filter plate (Millipore MULTISCREEN-HTS-FB™ cat # MSFBN6B50). The plates were counted in a TOPCOUNT™ scintillation counter (Perkin Elmer). Data analysis uses EXCEL™ for % Inhibition and GRAPHPAD PRISM™ for IC50 calculation.

[6] = test system: normal human cord blood HSPC; test: Normal human HSPC in hematopoietic progenitor assays and SL/M2 co-culture; assay type: cell-based
Description: as §1, §2

[7] = test system: human blast crisis CML LSC; assay type: in vivo
Description: Human Progenitor Primagrafts and Treatment
Equal numbers of primary normal or blast crisis CML CD34^+ cells were transplanted intrahepatically into neonatal RAG2^−/−γc^−/− mice to form primagrafts, according to established methods^1, 3. At 8-12 weeks post-transplant, mice were treated with PF-04449913, Dasatinib, a combination of PF-04449913 and Dasatinib, or drug vehicle for 14 days followed by FACS analysis of human hematopoietic engraftment in hematopoietic tissues.
Nanofluidic phospho-proteomic immunoassay (NPI) experiments were performed with the NANOPRO 1000™ instrument (Cell Biosciences) and all samples were run in triplicate at least. The FIREFLY™ system first performed a charge-based separation (isoelectric focusing). Predicted pIs were calculated with SCANSITE™. Each sample was run on a panel of different pH gradients (pH 5-8) to optimize the resolution of different peak patterns. After separation and photo-activated in-capillary immobilization, GLI-2 was detected using GLI2-specific antibody (Abcam). A β2-microglubulin-specific antibody (β2M; Upstate) was used to normalize the amount of loaded protein. The peaks were quantified by calculating the area under the curve (AUC).
Primagrafts, in vivo Drug Treatment, and Engraftment Analysis
Immunocompromised RAG2^−/−γc^−/− mice were bred and maintained in the UC San Diego Moores Cancer Center vivarium. Neonatal mice were transplanted intrahepatically with normal progenitors or LSC from primary patient samples according to our previously published methods^19. Upon detection of tumor or peripheral blood engraftment, mice were treated daily by oral gavage with vehicle (50% 1,2 Propandiol, 50% HBSS or methylcellulose), PF-04449913 (100 mg/kg dissolved in vehicle), Dasatinib (50 mg/kg dissolved in vehicle), combination of PF-04449913 (100 mg/kg) and dasatinib (50 mg/kg). After treatment, mice were euthanized and single cell suspensions of hematopoietic tissues were analyzed for human engraftment by FACS as described previously^19, 20. Similarly, NOD.
Four vehicle-treated and four PF-04449913-treated samples constituting two sets of four technical replicates. The reads from the four RNA sequencing experiments under each treatment regimen were then combined for analysis of effects of vehicle and PF-04449913-treatment containing a total of 65M and 64M reads, respectively and compared with normal FACS purified cord blood CD34^+CD38^+Lin^− progenitors.
as §3

[8] = cell cycle FACS, bone marrow, 14 days

CN1CC[C@@H](NC(=O)Nc2ccc(C#N)cc2)C[C@@H]1c1nc2ccccc2[nH]1 [PF-04449913]
IC50 [1]: 6.8 nM | medulloblastoma growth ([2]; Ptch1+/−p53+/− allograft model): significantly reduce medulloblastoma growth | Shh target gene expression in allograft ([2]; Ptch+/−p53+/− allografts): decreased Shh target gene expression | LSC / leukemic progenitor survival [3]: significantly reduced; also recorded: reduction in blast crisis leukemic progenitor survival | frequency of HSPC, myeloid and lymphoid cell fate commitment [4]: remained comparable to vehicle treated controls | human hematopoietic cell cycle status [4]: unaltered | IC50 ([5]; 4.3 nM+/−5.2 nM, N=5, read-out: IC50, SMO competition binding, value with spread): 4.3 nM | IC50 ([5]; cyclopamine-competitive tritiated SMO antagonist, read-out: IC50, competition with radiolabeled SMO antagonist for binding to human SMO (amino acids 181-787)): 4 nM | percentage of normal HSPC ([6]; 7 days SL/M2 stromal co-culture): remained constant | differentiation capacity of normal human HSPC ([6]; hematopoietic progenitor assays): unimpaired | spleen weight ([7]; 100 mg/kg daily, 14 days, p=0.006): significant decrease | body weight ([7]; 100 mg/kg oral gavage, 14 days): no evidence of weight loss | GLI1 transcript level in FACS purified progenitors ([7]; 100 mg/kg, 14 days, p=0.056): reductions | GLI2 transcript level in FACS purified progenitors ([7]; 100 mg/kg, 14 days, p=0.08): reductions | expression of cell cycle regulators ([7]; RNA sequencing of engrafted leukemic progenitors, family wise p-value 0.02): repression of cell cycle regulators | cell cycle gene isoforms shifting toward normal progenitor splice isoform pattern ([7]; RNA sequencing, Fisher exact test p=0.0006): 75 of 110 | sonic hedgehog pathway isoforms reverting to normal progenitor splice isoform pattern ([7]; RNA sequencing, Fisher exact test p=0.0048): 37 of 50 | fraction of leukemic progenitors in G0 [7, 8]: reduced the fraction of leukemic progenitors in G0 | fraction of leukemic progenitors in G1 [7, 8]: increase in the G1 fraction | human GLI protein expression ([7]; immunofluorescence and nanoproteomics (p=0.001), vs vehicle): reduced human GLI protein expression
